According to patent US20240092758A1, “IMIDAZOLO INDAZOLE COMPOUNDS AS JAK INHIBITORS” (Theravance Biopharma R&D IP, LLC, priority 2021, published 2024):

Columns and labels:
[1] = tested on: IL-13 induced STAT6 phosphorylation in BEAS-2B human lung epithelial cells; test: Cellular JAKI potency assay (BEAS-2B); type: cell-based; details: Homo sapiens, BEAS-2B, BEAS-2B cells, read-out: BEAS2B pIC50 (converted)
How it was run: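 AlphaLISA SureFire detection of Tyr641 pSTAT6 in lysates gave IC50s (4-parameter fit, expressed as pIC50). Cells: human BEAS-2B, exposed 1 h at 37 °C to compound dose series at 0.1% DMSO, then 30 min to IL-13 added at 80 ng/mL in HEPES-buffered HBSS with BSA.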

JAK2 = JAK2 (Homo sapiens (Human), UniProt O60674); test: Biochemical JAK kinase assay (LanthaScreen), JAK2; details: for Ki: read-out: JAK2 pKi (converted)
JAK2, sequence (O60674 whole entry): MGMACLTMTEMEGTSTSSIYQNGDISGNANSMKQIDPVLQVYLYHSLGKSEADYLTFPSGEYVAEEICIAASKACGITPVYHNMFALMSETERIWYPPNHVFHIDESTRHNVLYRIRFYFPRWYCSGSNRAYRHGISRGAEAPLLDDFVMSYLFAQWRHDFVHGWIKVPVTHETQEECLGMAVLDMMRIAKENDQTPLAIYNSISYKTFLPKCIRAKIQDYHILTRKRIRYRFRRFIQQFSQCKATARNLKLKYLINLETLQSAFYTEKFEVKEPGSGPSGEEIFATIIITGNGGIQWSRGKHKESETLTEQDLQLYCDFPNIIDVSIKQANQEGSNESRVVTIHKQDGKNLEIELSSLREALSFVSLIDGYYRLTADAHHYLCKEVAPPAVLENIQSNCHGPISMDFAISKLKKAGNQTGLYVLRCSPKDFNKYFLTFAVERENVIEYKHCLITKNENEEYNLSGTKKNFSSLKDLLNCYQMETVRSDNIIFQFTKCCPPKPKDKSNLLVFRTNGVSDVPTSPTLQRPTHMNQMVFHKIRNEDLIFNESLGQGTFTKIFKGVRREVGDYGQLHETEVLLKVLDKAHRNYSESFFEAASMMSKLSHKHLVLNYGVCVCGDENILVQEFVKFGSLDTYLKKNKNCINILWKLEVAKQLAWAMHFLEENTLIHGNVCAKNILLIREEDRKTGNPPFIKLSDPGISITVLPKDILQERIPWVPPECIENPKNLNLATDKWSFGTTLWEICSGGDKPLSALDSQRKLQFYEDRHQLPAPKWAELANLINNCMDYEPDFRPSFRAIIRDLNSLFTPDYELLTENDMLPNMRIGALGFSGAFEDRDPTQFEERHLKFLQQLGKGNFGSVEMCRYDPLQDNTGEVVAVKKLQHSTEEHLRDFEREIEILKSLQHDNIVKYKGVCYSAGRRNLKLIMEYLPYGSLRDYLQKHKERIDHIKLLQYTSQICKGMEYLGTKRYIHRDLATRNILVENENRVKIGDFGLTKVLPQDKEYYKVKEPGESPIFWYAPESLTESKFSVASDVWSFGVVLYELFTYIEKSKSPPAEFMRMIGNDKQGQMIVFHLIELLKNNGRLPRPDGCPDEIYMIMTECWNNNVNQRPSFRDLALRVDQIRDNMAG
How it was run: (§1)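 LanthaScreen format: phospho-STAT1 (pTyr701) detected with 2 nM Tb antibody after 10 mM EDTA quench. Kinase step used Km-level ATP and 200 nM STAT1 peptide, 1 h at ambient after 1 h pre-incubation. Inhibition fitted to IC50, reported as pKi.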

TYK2 = TYK2 (Homo sapiens (Human), UniProt P29597); test: Biochemical JAK kinase assay (LanthaScreen), Tyk2; details: read-out: Tyk2 pKi (converted)
TYK2, sequence (P29597 whole entry): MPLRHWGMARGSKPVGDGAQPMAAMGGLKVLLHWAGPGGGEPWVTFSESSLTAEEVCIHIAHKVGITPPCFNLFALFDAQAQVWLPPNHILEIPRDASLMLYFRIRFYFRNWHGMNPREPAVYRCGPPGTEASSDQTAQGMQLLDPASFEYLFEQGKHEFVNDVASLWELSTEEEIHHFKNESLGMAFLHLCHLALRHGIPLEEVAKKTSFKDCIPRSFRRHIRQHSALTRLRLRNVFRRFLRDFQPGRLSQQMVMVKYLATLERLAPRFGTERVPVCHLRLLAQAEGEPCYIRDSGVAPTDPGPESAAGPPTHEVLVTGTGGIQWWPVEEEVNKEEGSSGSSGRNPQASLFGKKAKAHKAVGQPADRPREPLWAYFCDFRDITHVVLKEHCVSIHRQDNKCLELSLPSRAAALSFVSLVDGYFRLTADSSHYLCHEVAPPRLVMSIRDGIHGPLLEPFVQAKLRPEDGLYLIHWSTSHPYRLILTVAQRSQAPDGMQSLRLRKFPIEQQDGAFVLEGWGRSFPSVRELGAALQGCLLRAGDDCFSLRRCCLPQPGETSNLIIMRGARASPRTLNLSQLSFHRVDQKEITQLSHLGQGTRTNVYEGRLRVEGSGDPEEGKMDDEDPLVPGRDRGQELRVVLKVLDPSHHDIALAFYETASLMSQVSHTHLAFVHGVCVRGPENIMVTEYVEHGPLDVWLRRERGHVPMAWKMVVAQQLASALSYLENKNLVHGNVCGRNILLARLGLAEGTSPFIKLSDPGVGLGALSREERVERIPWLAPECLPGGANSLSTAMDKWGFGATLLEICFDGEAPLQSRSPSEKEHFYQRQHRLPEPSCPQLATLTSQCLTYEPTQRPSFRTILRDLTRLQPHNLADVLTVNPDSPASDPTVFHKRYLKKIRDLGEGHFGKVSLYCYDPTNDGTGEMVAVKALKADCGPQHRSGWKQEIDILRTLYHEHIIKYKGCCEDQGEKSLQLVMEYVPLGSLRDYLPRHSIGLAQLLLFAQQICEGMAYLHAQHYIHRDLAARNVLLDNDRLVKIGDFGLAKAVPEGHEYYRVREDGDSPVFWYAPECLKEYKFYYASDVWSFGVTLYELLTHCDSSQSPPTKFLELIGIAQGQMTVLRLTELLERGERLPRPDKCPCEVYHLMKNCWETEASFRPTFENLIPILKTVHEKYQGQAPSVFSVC
Experimental: (§2) A panel of four LanthaScreen JAK biochemical assays (JAK1, 2, 3 and Tyk2) were carried in a common kinase reaction buffer (50 mM HEPES, pH 7.5, 0.01% Brij-35, 10 mM MgCl2, and 1 mM EGTA). Recombinant GST-tagged JAK enzymes and a GFP-tagged STAT1 peptide substrate were obtained from Life Technologies.
(§3) Serially diluted compounds were pre-incubated with each of the four JAK enzymes and the substrate in white 384-well microplates (Corning) at ambient temperature for 1 h. ATP was subsequently added to initiate the kinase reactions in 10 μL total volume, with 1% DMSO. The final enzyme concentrations for JAK1, 2, 3 and Tyk2 are 4.2 nM, 0.1 nM, 1 nM, and 0.25 nM respectively; the corresponding Km ATP concentrations used are 25 μM, 3 μM, 1.6 μM, and 10 μM; while the substrate concentration is 200 nM for all four assays. Kinase reactions were allowed to proceed for 1 hour at ambient temperature before a 10 μL preparation of EDTA (10 mM final concentration) and Tb-anti-pSTAT1 (pTyr701) antibody (Life Technologies, 2 nM final concentration) in TR-FRET dilution buffer (Life Technologies) was added. The plates were allowed to incubate at ambient temperature for 1 h before being read on the EnVision reader (Perkin Elmer). Emission ratio signals (520 nm/495 nm) were recorded and utilized to calculate the percent inhibition values based on DMSO and background controls.
(§4) For dose-response analysis, percent inhibition data were plotted vs. compound concentrations, and IC50 values were determined from a 4-parameter robust fit model with the Prism software (GraphPad Software). Results were expressed as pIC50 (negative logarithm of IC50) and subsequently converted to pKi (negative logarithm of dissociation constant, Ki) using the Cheng-Prusoff equation.
(§5) Test compounds having a lower Ki value or higher pKi value in the four JAK assays show greater inhibition of JAK activity.

JAK1 = JAK1 (Homo sapiens (Human), UniProt P23458); test: Biochemical JAK kinase assay (LanthaScreen), JAK1; details: for Ki: read-out: JAK1 pKi (converted)
JAK1, sequence (P23458 whole entry): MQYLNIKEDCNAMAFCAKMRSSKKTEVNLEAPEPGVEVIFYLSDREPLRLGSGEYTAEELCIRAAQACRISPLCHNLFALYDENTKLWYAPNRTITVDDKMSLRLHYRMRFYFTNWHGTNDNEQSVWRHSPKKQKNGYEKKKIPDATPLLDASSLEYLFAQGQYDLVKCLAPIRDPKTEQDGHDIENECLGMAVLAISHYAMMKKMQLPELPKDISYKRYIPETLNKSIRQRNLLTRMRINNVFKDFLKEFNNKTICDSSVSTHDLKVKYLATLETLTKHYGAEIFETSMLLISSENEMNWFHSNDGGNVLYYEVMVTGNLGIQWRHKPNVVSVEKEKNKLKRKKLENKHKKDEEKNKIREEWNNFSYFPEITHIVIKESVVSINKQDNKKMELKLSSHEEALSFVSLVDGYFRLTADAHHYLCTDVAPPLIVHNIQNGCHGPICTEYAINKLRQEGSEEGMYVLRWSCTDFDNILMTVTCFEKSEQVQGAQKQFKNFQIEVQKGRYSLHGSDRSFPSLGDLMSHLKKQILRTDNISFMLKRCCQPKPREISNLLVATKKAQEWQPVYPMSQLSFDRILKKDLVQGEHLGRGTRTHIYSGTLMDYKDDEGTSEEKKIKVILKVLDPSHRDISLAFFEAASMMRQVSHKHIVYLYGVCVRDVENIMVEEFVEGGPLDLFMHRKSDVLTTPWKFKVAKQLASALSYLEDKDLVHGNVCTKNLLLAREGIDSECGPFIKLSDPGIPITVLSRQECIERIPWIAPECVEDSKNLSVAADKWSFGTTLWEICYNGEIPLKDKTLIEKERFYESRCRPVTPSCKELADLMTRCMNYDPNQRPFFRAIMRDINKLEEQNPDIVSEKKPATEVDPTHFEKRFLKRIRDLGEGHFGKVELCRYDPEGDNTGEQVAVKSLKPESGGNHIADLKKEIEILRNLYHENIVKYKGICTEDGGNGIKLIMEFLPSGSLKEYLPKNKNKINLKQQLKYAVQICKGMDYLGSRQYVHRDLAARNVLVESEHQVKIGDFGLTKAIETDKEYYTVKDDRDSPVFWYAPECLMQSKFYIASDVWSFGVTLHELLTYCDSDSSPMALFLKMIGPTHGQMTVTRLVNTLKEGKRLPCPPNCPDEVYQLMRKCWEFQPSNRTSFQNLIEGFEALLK
How it was run: as §1

JAK3 = JAK3 (Homo sapiens (Human), UniProt P52333); test: Biochemical JAK kinase assay (LanthaScreen), JAK3; details: read-out: JAK3 pKi (converted)
JAK3, sequence (P52333 whole entry): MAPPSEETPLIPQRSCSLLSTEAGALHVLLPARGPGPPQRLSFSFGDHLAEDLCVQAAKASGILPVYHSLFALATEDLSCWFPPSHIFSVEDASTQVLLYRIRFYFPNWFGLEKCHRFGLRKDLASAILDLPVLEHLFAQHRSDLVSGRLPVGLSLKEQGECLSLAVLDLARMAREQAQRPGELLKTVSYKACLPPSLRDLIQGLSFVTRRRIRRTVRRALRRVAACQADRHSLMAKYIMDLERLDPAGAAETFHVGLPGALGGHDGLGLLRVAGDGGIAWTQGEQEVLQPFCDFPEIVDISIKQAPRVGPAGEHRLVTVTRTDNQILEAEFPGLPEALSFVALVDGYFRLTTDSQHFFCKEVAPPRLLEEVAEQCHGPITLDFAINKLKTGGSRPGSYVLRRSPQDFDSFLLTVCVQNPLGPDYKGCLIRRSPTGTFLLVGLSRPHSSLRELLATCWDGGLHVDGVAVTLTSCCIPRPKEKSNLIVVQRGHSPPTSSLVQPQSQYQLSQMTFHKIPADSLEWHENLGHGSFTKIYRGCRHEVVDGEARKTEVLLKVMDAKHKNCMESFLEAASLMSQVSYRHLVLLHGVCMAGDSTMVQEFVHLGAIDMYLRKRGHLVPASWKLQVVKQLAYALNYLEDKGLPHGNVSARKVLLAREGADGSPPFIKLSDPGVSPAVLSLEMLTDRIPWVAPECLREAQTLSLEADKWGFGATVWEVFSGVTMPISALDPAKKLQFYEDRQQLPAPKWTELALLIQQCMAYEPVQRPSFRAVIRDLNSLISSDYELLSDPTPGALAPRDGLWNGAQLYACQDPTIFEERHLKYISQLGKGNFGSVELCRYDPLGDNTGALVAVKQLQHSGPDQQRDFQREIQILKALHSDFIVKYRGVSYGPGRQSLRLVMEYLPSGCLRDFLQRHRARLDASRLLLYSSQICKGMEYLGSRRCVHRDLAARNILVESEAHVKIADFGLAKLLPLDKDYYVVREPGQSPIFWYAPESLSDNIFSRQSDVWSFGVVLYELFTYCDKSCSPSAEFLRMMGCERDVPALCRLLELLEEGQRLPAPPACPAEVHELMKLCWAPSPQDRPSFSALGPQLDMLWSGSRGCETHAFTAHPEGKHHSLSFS
Experimental: as §2, §3, §4, §5

[2] = Pharmacokinetics in plasma and lung in mouse after oral aspiration administration; type: in vivo; details: male CD1 mice
Experimental: Plasma and lung concentrations of test compounds were quantified and pharmacokinetic parameters were calculated in the following manner. Male CD1 mice from Charles River Laboratories were used in the pharmacokinetic studies. Test compounds were individually formulated in 20% propylene glycol in pH 4 citrate buffer at a concentration of 0.2 mg/mL. Test compounds were administered in two, 25 μL increments introduced into the trachea of each mouse by oral aspiration using a calibrated pipette once the animal was anesthetized using isoflurane. Blood samples were collected as terminal collections via cardiac puncture at 0.167, 1, 4, 8, and 24 hr post-dosing. Following […] with CO2, a direct cardiac puncture was performed while avoiding puncturing the lung and blood was immediately transferred into K2EDTA tubes and placed on wet ice. Blood samples were centrifuged (Eppendorf centrifuge, 5804R) for 4 minutes at approximately 12,000 rpm at 4° C. to collect plasma. Intact lungs were also excised from these mice using the same timepoints (0.167, 1, 4, 8, and 24 hr). Lungs were washed with sterile water to remove any blood residue and were patted dry, weighed, and homogenized in 0.1% formic acid in water at a dilution of 1:3 (lung:water, weight/volume). Plasma and lung concentrations of test compounds were determined by LC-MS/MS analysis against analytical standards constructed into a standard curve in the test matrix. The pharmacokinetic parameters of test compounds were determined by non-compartmental analysis. For concentrations below the limit of quantification, zero was used for mean calculations. Mean values were not reported if more than 50% of the samples were below the limit of quantification at a timepoint, or if more than 50% of a calculated pharmacokinetic parameter was not reportable. The area under the concentration-time curve extrapolated to infinity (AUC(0-inf)) was calculated as follows: AUC(0-inf)=AUC(0-t)+Clast/k, where AUC(0-t) is the area under the concentration-time curve from the time of dosing to the last measurable concentration calculated by the linear trapezoidal rule, Clast is the last measurable concentration, and k is the first order rate constant associated with the terminal elimination phase, estimated by linear regression of time versus log concentration. The lung-to-plasma AUC ratio was determined as the ratio of the lung AUC(0-inf) in μg*hr/g to the plasma AUC(0-inf) in μg*hr/mL.

SMILES | IC50 [1] [nM] | JAK2 pKi (JAK2) | Ki (TYK2) [nM] | JAK1 pKi (JAK1) | Ki (JAK3) [nM] | Ki (JAK2) [nM] | Ki (JAK1) [nM] | Lung Tissue AUC(0-24) ([2]; 0.2 mg/mL, two 25 μL increments, lung tissue) | Lung Tissue:Plasma AUC ratio ([2]; lung AUC to plasma AUC) | AUC(0-t) ([2]; mouse, inhaled or intranasal, 0.01 mg/mouse, 0.2 mg/mL, two 25 μL increments, plasma, read-out: Plasma AUC(0-24)) [ng·h/mL]
CCc1cc(O)ccc1-c1ccc2c(-c3nc(C4=CCN(C)CC4)c[nH]3)n[nH]c2c1 [Example 19] | 3.16 to 10 | A (A represents a pKi value ≥10 (Ki≤0.1 nM)) | 0.1 to 1 | A (A represents a pKi value ≥10 (Ki≤0.1 nM)) | 0.1 to 1 | – | – | – | – | –
CCc1cc(O)ccc1-c1ccc2c(-c3nc(C4=CCN(C(C)C)CC4)c[nH]3)n[nH]c2c1 [Example 20] | 3.16 to 10 | A (A represents a pKi value ≥10 (Ki≤0.1 nM)) | 1 to 10 | A (A represents a pKi value ≥10 (Ki≤0.1 nM)) | 0.1 to 1 | – | – | – | – | –
CCc1cc(O)ccc1-c1ccc2c(-c3nc(C4=CCN(CC)CC4)c[nH]3)n[nH]c2c1F [Example 23] | 3.16 to 10 | – | 1 to 10 | – | 0.1 to 1 | 0.1 to 1 | 0.1 to 1 | – | – | –
CCCN1CC=C(c2c[nH]c(-c3n[nH]c4c(F)c(-c5ccc(O)cc5CC)ccc34)n2)CC1 [Example 24] | 3.16 to 10 | A (A represents a pKi value ≥10 (Ki≤0.1 nM)) | 1 to 10 | – | 0.1 to 1 | – | 0.1 to 1 | – | – | –
CCc1cc(O)ccc1-c1ccc2c(-c3nc(C4=CCN(CC(C)C)CC4)c[nH]3)n[nH]c2c1F [Example 25] | 10 to 31.6 | – | 10 to 100 | – | 0.1 to 1 | 0.1 to 1 | 0.1 to 1 | – | – | –
CCc1cc(O)ccc1-c1ccc2c(-c3nc(C4=CCCN(C)C4)c[nH]3)n[nH]c2c1 [Example 27] | 3.16 to 10 | A (A represents a pKi value ≥10 (Ki≤0.1 nM)) | 1 to 10 | A (A represents a pKi value ≥10 (Ki≤0.1 nM)) | 0.1 to 1 | – | – | – | – | –
CCc1cc(O)ccc1-c1ccc2c(-c3nc(C4=CCCN(C)C4)c[nH]3)n[nH]c2c1F [Example 29] | 3.16 to 10 | – | 1 to 10 | – | 0.1 to 1 | 0.1 to 1 | 0.1 to 1 | – | – | –
CCc1cc(O)ccc1-c1ccc2c(-c3nc(C4=CCCN(C(C)C)C4)c[nH]3)n[nH]c2c1F [Example 30] | 10 to 31.6 | – | 1 to 10 | – | 0.1 to 1 | 0.1 to 1 | 0.1 to 1 | – | – | –
CCc1cc(O)ccc1-c1ccc2c(-c3nc(C4=CCN(C)C4)c[nH]3)n[nH]c2c1F [Example 31] | 3.16 to 10 | – | 1 to 10 | – | 0.1 to 1 | 0.1 to 1 | 0.1 to 1 | – | – | –
CCc1cc(O)ccc1-c1ccc2c(-c3nc(C4=CCN(CCO)CC4)c[nH]3)n[nH]c2c1 [Example 33] | 3.16 to 10 | A (A represents a pKi value ≥10 (Ki≤0.1 nM)) | 0.1 to 1 | A (A represents a pKi value ≥10 (Ki≤0.1 nM)) | 0.1 to 1 | – | – | – | – | –
CCc1cc(O)ccc1-c1ccc2c(-c3nc(C4=CCN(CCCO)CC4)c[nH]3)n[nH]c2c1 [Example 34] | 3.16 to 10 | A (A represents a pKi value ≥10 (Ki≤0.1 nM)) | 1 to 10 | A (A represents a pKi value ≥10 (Ki≤0.1 nM)) | 0.1 to 1 | – | – | – | – | –
CCc1cc(O)ccc1-c1ccc2c(-c3nc(C4=CCN(CCO)CC4)c[nH]3)n[nH]c2c1F [Example 36] | 3.16 to 10 | – | 1 to 10 | A (A represents a pKi value ≥10 (Ki≤0.1 nM)) | 0.1 to 1 | 0.1 to 1 | – | – | – | –
CCc1cc(O)ccc1-c1ccc2c(-c3nc(C4=CCCN(CCCO)C4)c[nH]3)n[nH]c2c1 [Example 42] | 3.16 to 10 | A (A represents a pKi value ≥10 (Ki≤0.1 nM)) | 1 to 10 | A (A represents a pKi value ≥10 (Ki≤0.1 nM)) | 0.1 to 1 | – | – | – | – | –
CCc1cc(O)ccc1-c1ccc2c(-c3nc(C4=CCN(CCO)C4)c[nH]3)n[nH]c2c1 [Example 50] | 3.16 to 10 | A (A represents a pKi value ≥10 (Ki≤0.1 nM)) | 0.1 to 1 | A (A represents a pKi value ≥10 (Ki≤0.1 nM)) | 0.1 to 1 | – | – | – | – | –
CCc1cc(O)ccc1-c1ccc2c(-c3nc(C4=CCN(CCO)C4)c[nH]3)n[nH]c2c1F [Example 53] | 3.16 to 10 | A (A represents a pKi value ≥10 (Ki≤0.1 nM)) | 1 to 10 | A (A represents a pKi value ≥10 (Ki≤0.1 nM)) | 0.1 to 1 | – | – | – | – | –
CCc1cc(O)ccc1-c1ccc2c(-c3nc(C4=CCN(CCCO)C4)c[nH]3)n[nH]c2c1F [Example 54] | 3.16 to 10 | A (A represents a pKi value ≥10 (Ki≤0.1 nM)) | 1 to 10 | A (A represents a pKi value ≥10 (Ki≤0.1 nM)) | 0.1 to 1 | – | – | – | – | –
CCc1cc(O)ccc1-c1ccc2c(-c3nc(C4=CCN(C5COC5)CC4)c[nH]3)n[nH]c2c1 [Example 57] | 10 to 31.6 | – | 1 to 10 | – | 0.1 to 1 | 0.1 to 1 | 0.1 to 1 | – | – | –
CCc1cc(O)ccc1-c1ccc2c(-c3nc(C4=CCN(C5COC5)CC4)c[nH]3)n[nH]c2c1F [Example 64] | 10 to 31.6 | – | 1 to 10 | – | 0.1 to 1 | 0.1 to 1 | 0.1 to 1 | – | – | –
CCc1cc(O)ccc1-c1ccc2c(-c3nc(C4=CCCN(C5COC5)C4)c[nH]3)n[nH]c2c1F [Example 70] | 31.6 to 100 | – | 10 to 100 | – | 0.1 to 1 | 0.1 to 1 | 1 to 10 | – | – | –
CCc1cc(O)ccc1-c1ccc2c(-c3nc(C4=CCN(C5COC5)C4)c[nH]3)n[nH]c2c1F [Example 75] | 10 to 31.6 | – | 1 to 10 | – | 0.1 to 1 | 0.1 to 1 | 0.1 to 1 | – | – | –
CCc1cc(O)ccc1-c1ccc2c(-c3nc(C4=CCN(CCSC)CC4)c[nH]3)n[nH]c2c1F [Example 81] | 31.6 to 100 | A (A represents a pKi value ≥10 (Ki≤0.1 nM)) | 1 to 10 | – | 0.1 to 1 | – | 0.1 to 1 | – | – | –
CCc1cc(O)ccc1-c1ccc2c(-c3nc(C4=CCCN(CCSC)C4)c[nH]3)n[nH]c2c1F [Example 90] | 31.6 to 100 | – | 10 to 100 | – | 0.1 to 1 | 0.1 to 1 | 0.1 to 1 | – | – | –
CCc1cc(O)ccc1-c1ccc2c(-c3nc(C4=C[C@H](CC(=O)N(C)C)NC4)c[nH]3)n[nH]c2c1F [Example 255] | 10 to 31.6 | A (A represents a pKi value ≥10 (Ki≤0.1 nM)) | – | A (A represents a pKi value ≥10 (Ki≤0.1 nM)) | – | – | – | A (For the Lung Tissue AUC(0-24), A denotes a value between 100 and 200) | D (D denotes a ratio between 50 and 100) | 1000 to 1500
